Measured values as given in US10046052B2, “Method and formulation for cold treatment in adults and children with increased safety” (priority 2010, dated 2018).
Like-named read-outs stand apart in the source and are kept apart here.

System: patients with cold, cough and other symptoms of respiratory infection (Upper Respiratory Infection, URI/cold)
Text: Representative Samples of Clinical Cases of Patients of Varying Ages Treated by a Doctor, with Non or Minimally Sedating Antihistamines for Cold, Cough and Other Symptoms of Respiratory Infection:

For `O=C(O)COCCN1CCN(C(c2ccccc2)c2ccc(Cl)cc2)CC1` (stereo not drawn) [Cetirizine], the “relief of URI symptoms” value (Case 1: URI/cold, Cetirizine 10 mg QHS with Triamcinolone Nasal Spray) was “rapid relief of URI symptoms”, the “relief of URI symptoms” value (Case 2: same patient as Case 1, URI/cold and Bronchitis, Cetirizine 10 mg QHS, already taking Triamcinolone Nasal Spray) was “rapid relief of URI symptoms” and the “relief of URI symptoms” value (Case 3: same patient as Case 1, URI/cold, Cetirizine 10 mg QHS) was “rapid relief of URI symptoms”. For the same compound, the “relief of URI symptoms” value (Case 8: URI/cold/Allergic Rhinitis, Cetirizine 10 mg QHS) was “rapid relief of URI symptoms”, the “relief of URI and Bronchitis symptoms” value (Case 9: same patient as Case 8, URI/cold/Bronchitis, Allergic Rhinitis, Cetirizine 10 mg QHS and Amoxicillin Clavulanate) was “rapid relief of URI and Bronchitis symptoms” and the “relief of URI symptoms” value (Case 14: URI, Cetirizine Liquid 2.5 mg QHS) was “rapid relief of URI symptoms”.
For `CC(C)(C(=O)O)c1ccc(C(O)CCCN2CCC(C(O)(c3ccccc3)c3ccccc3)CC2)cc1` (stereo not drawn) [Fexofenadine], the “relief of URI symptoms” value (Case 4: URI/cold, Fexofenadine 180 mg QD with Triamcinolone Nasal Spray) was “rapid relief of URI symptoms”, the “relief of Pharyngitis and Bronchitis symptoms” value (Case 10: Pharyngitis, Asthma, COPD, Fexofenadine 180 mg QD, Amoxicillin Clavulanate, Prednisone) was “rapid relief of Pharyngitis and Bronchitis symptoms” and the “relief of URI and Sinusitis symptoms” value (Case 11: URI/cold, rule out Sinusitis, Fexofenadine 60 mg BID, Amoxicillin Clavulanate) was “rapid relief of URI and Sinusitis symptoms”. For the same compound, the “relief of URI symptoms” value (Case 12: same patient as Case 11, Allergic Rhinitis/URI/cold, Fexofenadine 60 mg BID) was “rapid relief of URI symptoms” and the “relief of URI symptoms” value (Case 13: same patient as Cases 11 and 12, URI/cold, Fexofenadine 60 mg BID) was “rapid relief of URI symptoms”.
With `O=C(O)COCCN1CCN([C@H](c2ccccc2)c2ccc(Cl)cc2)CC1` [Levocetirizine] the “relief of URI symptoms” value (Case 5: child, URI/cold, Levocetirizine 2.5 mg at bedtime, Carbinoxamine with Dextromethorphan discontinued) was “rapid relief of URI symptoms”, the relief of cough (Case 6: same patient as Case 5, URI/cold, resumed Levocetirizine 2.5 mg at bedtime) was “rapid relief of cough” and the “relief of URI symptoms” value (Case 7: same patient as Case 6, Pharyngitis, URI/cold, Levocetirizine 2.5 mg at bedtime, using Mometasone Nasal Spray, asthma inhaler, Montelukast) was “rapid relief of URI symptoms”.
With `CCOC(=O)N1CCC(=C2c3ccc(Cl)cc3CCc3cccnc32)CC1` [Loratidine] the “relief of URI symptoms” value (Case 15: URI/Pharyngitis, Loratidine 10 mg QD, Azithromycin prescribed by Pediatrician) was “rapid relief of URI symptoms”.
